{"source": "patent US7582655B2", "about": "“Antineoplastic compounds” (University of Saskatchewan, priority 2005, dated 2009)", "key": {"human tumour cell lines": {"tested_on": "human tumour cell lines", "assay": "Panel of human tumour cell lines, all cell lines (mean graph midpoint)", "format": "cell-based", "method": "A number of compounds of the invention were further assessed against numerous human malignant cell lines. An average of 49 cell lines from nine different neoplastic diseases, namely leukemia, melanoma, non-small cell lung, colon, central nervous system, ovarian, renal, prostate, and breast cancers were employed.\n(§1) In addition, both 5-fluorouracil and melphalan were evaluated towards 57 cell lines. […] MG MID is the average of the potencies of the compound to approximately 50 neoplastic cell lines."}, "COLO 205": {"tested_on": "COLO 205", "assay": "Human tumour cell line panel, colon cancer COLO 205", "format": "cell-based", "settings": "Homo sapiens, COLO 205, 48 h; read-out: Colon cancer cells, IC50(μM) COLO 205", "method": "as §1"}, "HCT 116": {"tested_on": "HCT 116", "assay": "Human tumour cell line panel, colon cancer HCT 116", "format": "cell-based", "settings": "Homo sapiens, HCT-116, 48 h; read-out: Colon cancer cells, IC50(μM) HCT 116", "method": "as §1"}, "HCT 15": {"tested_on": "HCT 15", "assay": "Human tumour cell line panel, colon cancer HCT 15", "format": "cell-based", "settings": "Homo sapiens, HCT-15, 48 h; read-out: Colon cancer cells, IC50(μM) HCT 15", "method": "as §1"}, "KM 12": {"tested_on": "KM 12", "assay": "Human tumour cell line panel, colon cancer KM 12", "format": "cell-based", "settings": "Homo sapiens, KM12, 48 h; read-out: Colon cancer cells, IC50(μM) KM 12", "method": "as §1"}, "SW 620": {"tested_on": "SW 620", "assay": "Human tumour cell line panel, colon cancer SW 620", "format": "cell-based", "settings": "Homo sapiens, SW-620, 48 h; read-out: Colon cancer cells, IC50(μM) SW 620", "method": "as §1"}, "HCC 2998": {"tested_on": "HCC 2998", "assay": "Human tumour cell line panel, colon cancer HCC 2998", "format": "cell-based", "settings": "Homo sapiens, HCC 2998, 48 h; read-out: Colon cancer cells, IC50(μM) HCC 2998", "method": "as §1"}, "K 562": {"tested_on": "K 562", "assay": "Human tumour cell line panel, leukemic K 562", "format": "cell-based", "settings": "Homo sapiens, K562, 48 h; read-out: Leukemic cells, IC50(μM) K 562", "method": "as §1"}, "RPMI 8226": {"tested_on": "RPMI 8226", "assay": "Human tumour cell line panel, leukemic RPMI 8226", "format": "cell-based", "settings": "Homo sapiens, RPMI-8226, 48 h; read-out: Leukemic cells, IC50(μM) RPMI 8226", "method": "as §1"}, "HL 60": {"tested_on": "HL 60", "assay": "Human tumour cell line panel, leukemic HL 60", "format": "cell-based", "settings": "Homo sapiens, HL-60, 48 h; read-out: Leukemic cells, IC50(μM) HL 60", "method": "as §1"}, "SR": {"tested_on": "SR", "assay": "Human tumour cell line panel, leukemic SR", "format": "cell-based", "settings": "Homo sapiens, SR, 48 h; read-out: Leukemic cells, IC50(μM) SR", "method": "as §1"}, "[1]": {"tested_on": "murine L-5178 lymphoma cells transfected with the human MDR1 gene", "assay": "MDR reversal, rhodamine 123 fluorescence activity ratio", "settings": "FAR >1 indicates MDR reversal", "method": "A solution of the test compound (2 mg/ml, 10 μl) in dimethylsulfoxide was added to aliquots of the cell suspension and incubated at room temperature for 10 minutes. […] The cells were washed twice and resuspended in PBS (pH 7.4) after which the fluorescence was measured using a Beckton Dickinson FACScan instrument. The fluorescence of the cells was measured in treated MDR cells (F1), untreated MDR cells (F2), treated parental cells (F3) […] were obtained from the following equation, viz (F1/F2)/(F3/F4)."}, "[2]": {"tested_on": "human squamous cell carcinomas HSC-2", "assay": "Cytotoxicity CC50, MTT assay, HSC-2", "settings": "Homo sapiens, HSC-2, 24 h, read-out: CC50(μM) HSC-2", "method_in_brief": "(§2)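 Tumour cells and normal oral cells (HGF, HPC, HPLF; 3-7 population doublings) exposed to graded compound concentrations for 24 h. Viability by MTT absorbance at 540 nm, or by trypan blue exclusion with haemocytometer counting for HL-60; CC50 derived from dose-response curves.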"}, "[3]": {"tested_on": "human squamous cell carcinomas HSC-4", "assay": "Cytotoxicity CC50, MTT assay, HSC-4", "settings": "Homo sapiens, HSC-4, 24 h, read-out: CC50(μM) HSC-4", "method_in_brief": "as §2"}, "[4]": {"tested_on": "human promyelocytic leukemia HL-60", "assay": "Cytotoxicity CC50, trypan blue exclusion, HL-60", "settings": "Homo sapiens, HL-60, 24 h, read-out: CC50(μM) HL-60", "method_in_brief": "as §2"}, "in vitro [5]": {"assay": "in vitro", "settings": "human"}, "in vitro [6]": {"assay": "in vitro", "settings": "human", "remark": "listed apart in the source"}, "in vitro [7]": {"assay": "in vitro", "settings": "human", "remark": "listed apart in the source"}, "[8]": {"tested_on": "HGF, HPC and HPLF cells versus HSC-2, HSC-4 and HL-60 neoplasms", "assay": "Selectivity index, normal versus malignant cells", "format": "cell-based, human", "settings": "average CC50 of HGF, HPLF divided by average CC50 of HSC-2, HSC-4, HL-60", "method": "In addition, the compounds were evaluated against human squamous cell carcinomas (HSC-2 and HSC-4) and human promyelocytic leukemia neoplasms (HL-60) and compared with normal cells, i.e. human gingival fibroblasts (HGF), human pulp cells (HPC) and human periodontal ligament fibroblasts (HPLF).\nMTT stands for 3-(4,5-dimethylthiazol-2-yl)-2,5-diphenyltetrazolium bromide). The cells were incubated with varying concentrations of the compounds along with untreated cells for 24 h and the absorbance at 540 nm measured. In the case of the HL-60 assay, the trypan blue exclusion method was followed and cell viability was determined using a haemocytometer. The CC50 values were obtained from dose-response curves (Sakagami, H.; Satoh, K.; Ohata, H.; Takahashi, H.; Yoshida, H.; Iida, M.; Kuribayashi, N.; Sakagami, T.; Momose, K.; Takeda, M. Anticancer Res. 1996, 16, 2635-2644). The general methods used in culturing the cells employed in these cytotoxicity experiments have been described previously (Kawase, M.; Sakagami, H.; Motohashi, N.; Hauer, H.; Chatterjee, S. S.; Spengler, G.; Vigyikanne, A. V.; Molnár, A.; Molnár, J. In Vivo 2005, 19, 705-712; and Takeuchi, R.; Hoshijima, H.; Onuki, N.; Nagasaka, H.; Chowdhury, S. A.; Kawase, M.; Sakagami, H. Anticancer Res. 2005, 25, 4037-4042). In brief, the malignant cells were obtained from Professor Nagumo, Showa University, Japan. The HGF, HPC and HPLF cells were prepared from human periodontal tissue after obtaining informed consent according to the guidelines of Meikai University Ethics Committee, Japan (No. 0206). Since normal cells have a short lifespan, cells at the 3-7 population doubling time were used. With the exception of the HL-60 neoplasm, the cells were cultured in DMEM containing heat-inactivated FBS (10%) at 37° C. in a humidified carbon dioxide atmosphere and subcultured by trypsinization. The HL-60 cells were cultured in a similar fashion except that RPMI 1640 media was employed."}, "mice": {"tested_on": "mice", "settings": "five consecutive daily doses of 240 mg/kg; cited from earlier work"}, "[9]": {"tested_on": "murine lymphocytic leukemia P388/MRI cell line", "settings": "cited from earlier work"}, "[10]": {"tested_on": "synthetic DNA, poly(d(AT))", "settings": "cited from earlier work"}}, "data": [{"smiles": "Cl.O=C1C(=Cc2ccc(Cl)cc2)CN(C(=O)c2ccc(OCCN3CCCCC3)cc2)CC1=Cc1ccc(Cl)cc1", "note": "[Compound 5b, 3,5-bis(4-Chlorophenylmethylene)-1-[4-{2-(1-piperidinyl)ethoxy}phenylcarbonyl]-4-piperidone hydrochloride]", "values": [{"measurement": "IC50", "setting": "human tumour cell lines; mean graph midpoint, average of 49 (38-59) human tumour cell lines, 48 h incubation, read-out: All cell lines IC50", "value": "> 11.5", "unit": "µM"}, {"measurement": "S.I. (selectivity index)", "setting": "human tumour cell lines; ratio of the IC50 figures for the least and most sensitive cell lines", "value": ">66.1"}, {"measurement": "IC50", "setting": "COLO 205", "value": 15.8, "unit": "µM"}, {"measurement": "IC50", "setting": "HCT 116", "value": 47.9, "unit": "µM"}, {"measurement": "IC50", "setting": "HCT 15", "value": 49, "unit": "µM"}, {"measurement": "IC50", "setting": "KM 12", "value": 19.1, "unit": "µM"}, {"measurement": "IC50", "setting": "SW 620", "value": 3.55, "unit": "µM"}, {"measurement": "IC50", "setting": "HCC 2998", "value": 1.58, "unit": "µM"}, {"measurement": "IC50", "setting": "K 562", "value": 4.37, "unit": "µM"}, {"measurement": "IC50", "setting": "RPMI 8226", "value": 0.759, "unit": "µM"}, {"measurement": "IC50", "setting": "HL 60", "value": 20.4, "unit": "µM"}, {"measurement": "IC50", "setting": "SR", "value": 2.29, "unit": "µM"}, {"measurement": "FAR value 4 μg/ml", "setting": "[1]; compound 4 μg/ml", "value": 157}, {"measurement": "FAR value 40 μg/ml", "setting": "[1]; compound 40 μg/ml", "value": 133}, {"measurement": "CC50", "setting": "[2]", "value": 110, "unit": "µM"}, {"measurement": "CC50", "setting": "[3]", "value": 48, "unit": "µM"}, {"measurement": "CC50", "setting": "[4]", "value": 63, "unit": "µM"}, {"measurement": "CC50 at 24 h", "setting": "in vitro [5]", "value": "> 400", "unit": "µM"}, {"measurement": "CC50 at 24 h", "setting": "in vitro [6]", "value": "> 400", "unit": "µM"}, {"measurement": "CC50 at 24 h", "setting": "in vitro [7]", "value": 340, "unit": "µM"}, {"measurement": "SI (selectivity index)", "setting": "[8]", "value": ">5.2"}]}, {"smiles": "O=C1C(=Cc2ccccc2)CNCC1=Cc1ccccc1", "note": "[Compound B1]", "values": [{"measurement": "Fatalities in mice", "setting": "mice", "value": "did not induce fatalities"}, {"measurement": "Cytotoxic activity", "setting": "[9]", "value": "possesses cytotoxic activity"}, {"measurement": "Binding to poly(d(AT))", "setting": "[10]", "value": "does bind"}]}]}
